Our source for the inhibition values is ChEMBL document CHEMBL4368883, “Identification of the first enantiopure Rac1-Tiam1 protein-protein interaction inhibitor and its optimized synthesis via phosphine free remote group directed hydroarylation” (Medchemcomm, 2019).

Calls of active or inactive are those of the source. No cut-off for these calls is given here.

As usually defined, the inhibition is the relative decrease from the control value, in per cent.

The target of assay [1] is T1, Ras-related C3 botulinum toxin substrate 1/T-lymphoma invasion and metastasis-inducing protein 1 (Homo sapiens) (UniProt P63000+Q13009). Put plainly: Inhibition of Rac1-Tiam1 protein-protein interaction in human A617 cells assessed as reduction in intracellular Rac1-GTP levels at 1 to 10 uM after 4 hrs by G-LISA assay. It counts as cell-based.
In assay [2] the target is T1, Ras-related C3 botulinum toxin substrate 1/T-lymphoma invasion and metastasis-inducing protein 1 (Homo sapiens). Put plainly: Inhibition of Rac1-Tiam1 protein-protein interaction in human A617 cells assessed as reduction in intracellular Rac1-GTP levels at 10 uM after 4 hrs by G-LISA assay relative to control. It counts as cell-based.

Take `CCOC(=O)C1(N)C2CC(CC2c2cccc(Nc3ccc(N)cc3)c2)C1Sc1ccccc1` (racemic): in assay [1], the inhibition entry is “inactive”. Moreover, the inhibition in assay [2] worked out at 17.2%.
